Assay results published in ChEMBL document CHEMBL1146379, “Solid phase synthesis and SAR of small molecule agonists for the GPR40 receptor” (Bioorg Med Chem Lett, 2007).
Converted amounts (≈) assume the structure as drawn.

How the values were obtained:
[1] = target: T1, Free fatty acid receptor 1 (Homo sapiens, UniProt O14842); assay: Agonist activity at GPR40 receptor expressed in CHO cells by reporter gene assay; assay type: functional, cell-based
[2] = target: T1, Free fatty acid receptor 1; assay: Agonist activity at GPR40 receptor; assay type: functional
[3] = Distribution coefficient, log D at pH 7.4; assay type: physicochemical; conditions: octanol/water
[4] = Solubility at pH 7.4; assay type: physicochemical; conditions: buffer

T1 sequence (O14842 whole entry): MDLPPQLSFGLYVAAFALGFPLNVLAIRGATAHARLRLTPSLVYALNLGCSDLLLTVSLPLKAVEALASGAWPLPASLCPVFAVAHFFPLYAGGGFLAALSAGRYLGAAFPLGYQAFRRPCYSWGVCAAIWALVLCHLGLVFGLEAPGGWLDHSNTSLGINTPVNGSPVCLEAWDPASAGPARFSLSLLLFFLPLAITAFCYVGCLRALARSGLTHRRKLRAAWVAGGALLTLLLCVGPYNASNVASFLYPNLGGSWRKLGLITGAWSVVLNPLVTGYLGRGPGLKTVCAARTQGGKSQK

| Structure (SMILES) | %max [1] | EC50 [2] | logD [3] | solubility [4] |
| --- | --- | --- | --- | --- |
| O=C(O)CCc1ccc(NCc2ccc3c(c2)OCO3)cc1 | 141% |  |  |  |
| O=C(O)CCc1ccc(NCc2cccc(Br)c2)cc1 | 120% | 0.794 µM |  |  |
| CS(=O)(=O)Nc1cccc(CNc2ccc(CCC(=O)O)cc2)c1 | 9% |  |  |  |
| O=C(O)C1CC1c1ccc(NCc2ccc(-c3ccccc3)cc2)cc1 (stereo unspecified) | 80% | 0.0398 µM |  |  |
| N#Cc1ccc(CNc2ccc(CCC(=O)O)cc2)cc1 | 49% |  |  |  |
| O=C(O)CCc1ccc(NCc2cc(C(F)(F)F)cnc2Cl)cc1 | 112% | 5.01 µM |  |  |
| O=C(O)CCc1ccc(NCc2ccc(O)cc2)cc1 | 37% |  |  |  |
| O=C(O)CCc1ccc(NCc2ccc(Cl)c(Cl)c2)cc1 | 117% | 0.251 µM |  |  |
| O=C(O)CCc1ccc(NCc2ccc(C(F)(F)F)cc2)cc1 | 133% |  |  |  |
| O=C(O)CCc1ccc(NCc2ccc(C(=O)O)cc2)cc1 | 9% |  |  |  |
| CN(C)Cc1ccc(CNc2ccc(CCC(=O)O)cc2)cc1 | 12% |  |  |  |
| O=C(O)CCc1ccc(NCc2cccc(F)c2)cc1 | 120% | 5.01 µM |  |  |
| Cc1ccc(CNc2ccc(CCC(=O)O)cc2)cc1 | 152% | 3.98 µM |  |  |
| NC(=O)c1cccc(CNc2ccc(CCC(=O)O)cc2)c1 | 18% |  |  |  |
| O=C(O)CCc1ccc(NCc2ncc[nH]2)cc1 | 4% |  |  |  |
| O=C(O)CCc1ccc(NCc2ccc(Cl)cc2)cc1 | 111% | 1 µM | 0.98 | 830 µg/mL (≈ 2860 µM) |
| O=C(O)CCc1ccc(NCc2ccc(Cl)s2)cc1 | 143% |  |  |  |
| O=C(O)CCc1ccc(NCc2ccccc2Cl)cc1 | 122% | 3.98 µM |  |  |
| O=C(O)CCc1ccc(NCc2ccccc2)cc1 | 144% | 7.94 µM |  |  |
| O=C(O)CCc1ccc(NCc2cccnc2)cc1 | 4% |  |  |  |
| COc1ccc(CNc2ccc(CCC(=O)O)cc2)cc1 | 159% | 1.26 µM |  |  |

Second part, the compound after the results:

| %max [1] | EC50 [2] | logD [3] | solubility [4] | Structure (SMILES) |
| --- | --- | --- | --- | --- |
| 139% | 0.195 µM |  |  | O=C(O)CCc1ccc(NCc2ccc(Oc3ccccc3)cc2)cc1 |
| 34% | 16.6 µM |  |  | CC(C(=O)O)c1ccc(NCc2cccc(Oc3ccccc3)c2)cc1 (stereo unspecified) |
| 74% | 0.0501 µM |  |  | O=C(O)C1CC1c1ccc(NCc2cccc(Oc3ccccc3)c2)cc1 (stereo unspecified) |
| 32% | 3.98 µM |  |  | O=C(O)Cc1ccc(NCc2cccc(Oc3ccccc3)c2)cc1 |
| 62% | 1.58 µM |  |  | O=C(O)CCCc1ccc(NCc2ccc(-c3ccccc3)cc2)cc1 |
| 111% | 0.251 µM |  |  | O=C(O)CCc1ccc(NCc2ccc(-c3ccccc3)cc2)cc1 |
| 148% | 0.398 µM |  |  | O=C(O)CCc1cccc(NCc2cccc(Oc3ccccc3)c2)c1 |
| 160% | 0.501 µM |  |  | O=C(O)CCc1cccc(NCc2ccc(-c3ccccc3)cc2)c1 |
| 69% | 12.3 µM |  |  | O=C(O)Cc1ccc(NCc2ccc(-c3ccccc3)cc2)cc1 |
| 123% | 0.794 µM |  |  | O=C(O)CCc1ccc(NCc2ccc3ccccc3c2)cc1 |
| 74% | 3.16 µM |  |  | O=C(O)CCCc1ccc(NCc2cccc(Oc3ccccc3)c2)cc1 |
| 21% |  |  |  | CC(C(=O)O)c1ccc(NCc2ccc(-c3ccccc3)cc2)cc1 (stereo unspecified) |
